This is an account of results in the supplement of paper PMC10307832.

What all share (assay): relative viability (nuclei count vs DMSO), 5 days (fraction); higher = more cells survive
Compound in the assay “Ruxolitinib + Lapatinib”: N#CC[C@H](C1CCCC1)n1cc(-c2ncnc3[nH]ccc23)cn1 [Ruxolitinib] + CS(=O)(=O)CCNCc1ccc(-c2ccc3ncnc(Nc4ccc(OCc5cccc(F)c5)c(Cl)c4)c3c2)o1 [Lapatinib] (partner 2 µM)
The method, boiled down:
(§1)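 Relative viability equals treated-well nuclei counts divided by vehicle-well nuclei counts. Counts came from 4× images of lung cancer cell lines grown in 1536-well plates for 5 days after pin-tool dosing on the day after seeding. Dosing used one drug alone or a fixed anchor-drug dose plus five library-drug doses (not always all listed) in √10 steps, and values are medians of duplicate plates.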

Compound in the assay “VE-821 + Lapatinib”: CS(=O)(=O)c1ccc(-c2cnc(N)c(C(=O)Nc3ccccc3)n2)cc1 [VE-821] + CS(=O)(=O)CCNCc1ccc(-c2ccc3ncnc(Nc4ccc(OCc5cccc(F)c5)c(Cl)c4)c3c2)o1 [Lapatinib] (partner 2 µM)
Put shortly:
as §1

Compound in the assay “Vismodegib + Crizotinib”: CS(=O)(=O)c1ccc(C(=O)Nc2ccc(Cl)c(-c3ccccn3)c2)c(Cl)c1 [Vismodegib] + C[C@@H](Oc1cc(-c2cnn(C3CCNCC3)c2)cnc1N)c1c(Cl)ccc(F)c1Cl [Crizotinib] (partner 1 µM)
The method, boiled down:
as §1

Compound in the assay “Vismodegib + Vorinostat”: CS(=O)(=O)c1ccc(C(=O)Nc2ccc(Cl)c(-c3ccccn3)c2)c(Cl)c1 [Vismodegib] + O=C(CCCCCCC(=O)Nc1ccccc1)NO [Vorinostat] (partner 1 µM)
The method, boiled down: as §1

In the case of UMC-11, the relative viability in the assay with Ruxolitinib + Lapatinib (first compound 0.08 µM) is 1.01; with Ruxolitinib + Lapatinib (first compound 0.253 µM), 0.934; with Ruxolitinib + Lapatinib (first compound 0.8 µM), 1.23; with Ruxolitinib + Lapatinib (first compound 2.53 µM) it was 0.998; in the assay with Ruxolitinib + Lapatinib (first compound 8 µM) it was 1.02; with VE-821 + Lapatinib (first compound 0.08 µM), 1.23. In addition, the relative viability stood at 0.845 in the assay with VE-821 + Lapatinib (first compound 0.253 µM); 0.916 with VE-821 + Lapatinib (first compound 0.8 µM); 1.12 in the assay with VE-821 + Lapatinib (first compound 2.53 µM); 0.644 with VE-821 + Lapatinib (first compound 8 µM); 0.57 with Vismodegib + Crizotinib (first compound 0.08 µM); 0.56 with Vismodegib + Crizotinib (first compound 0.253 µM). Moreover, the relative viability with Vismodegib + Crizotinib (first compound 0.8 µM) was 0.723; in the assay with Vismodegib + Crizotinib (first compound 2.53 µM), 0.606; with Vismodegib + Crizotinib (first compound 8 µM), 0.652; with Vismodegib + Vorinostat (first compound 0.08 µM), 0.392; with Vismodegib + Vorinostat (first compound 0.253 µM) it was 0.373; with Vismodegib + Vorinostat (first compound 0.8 µM), 0.415. The relative viability in the assay with Vismodegib + Vorinostat (first compound 2.53 µM) is 0.35; in the assay with Vismodegib + Vorinostat (first compound 8 µM), 0.462.
